# Values joined by “and” are separate entries in the source; they are usually repeats but may differ in a detail not shown here. Equal values may be shown once. Read-outs that look alike come from different tables or passages of the source.
# Target: beta1 (right auricle of rats, stimulated by isoprenaline) (Rattus norvegicus, UniProt P18090)
# Conditions: for log (x - 1): Van Rossum's table; for Kb: agonist isoprenaline; for type of antagonism towards isoprenaline: simple displacement of curves to the right
# [1] = antagonist concentration 10^-8 M
# [2] = pA2 (overall), n = 11, all antagonist concentrations
# [3] = pA2, single preparation, antagonist concentration 10^-8 M
# [4] = antagonist concentration 3 × 10^-8 M
# [5] = antagonist concentration 3 × 10^-9 M
# Chain of beta1 (right auricle of rats, stimulated by isoprenaline) (P18090 whole entry): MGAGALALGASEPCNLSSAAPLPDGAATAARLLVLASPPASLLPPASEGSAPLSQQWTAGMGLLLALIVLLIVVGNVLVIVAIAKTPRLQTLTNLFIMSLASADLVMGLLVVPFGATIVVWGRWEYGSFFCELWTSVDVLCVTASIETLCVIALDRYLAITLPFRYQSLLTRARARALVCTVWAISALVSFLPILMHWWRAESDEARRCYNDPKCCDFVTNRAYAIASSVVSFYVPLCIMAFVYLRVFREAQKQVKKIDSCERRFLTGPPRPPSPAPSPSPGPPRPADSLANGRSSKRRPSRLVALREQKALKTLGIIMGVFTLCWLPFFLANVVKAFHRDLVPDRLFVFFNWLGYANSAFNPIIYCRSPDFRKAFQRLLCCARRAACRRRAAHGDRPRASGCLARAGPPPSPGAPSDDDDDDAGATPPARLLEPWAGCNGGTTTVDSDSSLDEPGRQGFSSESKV
SMILES,x (displacement of the curve) [1],log (x - 1) [1],Kb [2],Kb [3],"beta1-adrenolytic activity (pharmacological tests in vitro, in words)",beta1-adrenolytic / beta1-antagonistic activity relative to tertatolol (relative to tertatolol),type of antagonism towards isoprenaline,x (displacement of the curve) [4],log (x - 1) [4],x (displacement of the curve) [5],log (x - 1) [5],x (displacement of the curve) (antagonist concentration 10^-9 M),"Kb (pA2, single preparation, antagonist concentration 3 × 10^-8 M)","Kb (pA2, single preparation, antagonist concentration 3 × 10^-9 M)",times more powerful than propanolol (relative to propanolol)
"CC(C)(C)NCC(O)COc1cccc2c1SCCC2O (centres unmarked) [Compound of the formula I, 1-tert.-butylamino-3-(4-hydroxy-8-thiochromanyloxy)-2-propanol]",37.5 mm and 38 mm and 31 mm,1.22 and 1.24 and 0.99,0.575 nM,0.603 nM and 0.575 nM and 1.02 nM,very high beta1 -adrenolytic activity,twice that of tertatolol,competitive type,–,–,–,–,–,–,–,–
"CC(C)(C)NCC(O)COc1cccc2c1SCCC2 (centres unmarked) [Tertatolol, 1-tert.-butylamino-3-(8-thiochromanyloxy)-2-propanol]",41 mm and 46 mm and 47 mm,1.35 and 1.52 and 1.55,0.912 nM,0.447 nM and 0.302 nM and 0.282 nM,–,–,competitive type,35 mm and 32.5 mm,1.13 and 1.05,25.5 mm and 27 mm and 19.5 mm,0.78 and 0.84 and 0.54,6 mm and 7 mm and 3.5 mm,2.24 nM and 2.69 nM,0.501 nM and 0.437 nM and 0.871 nM,6 times

# Source: patent publication US4703057A, “Beta-blocking thiochroman derivatives, compositions and method of use therefor” (ADIR Et Compagnie, priority 1985, dated 1987)
